Assay [1] deals with human ovarian cancer cell line A2780. The assay can be described thus: Cell viability, SRB assay, 3 days, A2780. In kind it is cell-based. The arrangement: unit not given here. The conditions noted are these: A2780, 3 days. As for the experimental part:
All cells were maintained at 37° C. The cytotoxic effects of cysteamine, bromelain and the chemotherapeutic agent cisplatin were assessed. Each agent was administered to the cells either alone or in combination with either or both of the other agents. All cells were treated for 72 hours with the reagents and the cell populations were assessed using the SRB assay. Where possible, IC50 and ICmax were calculated. […] Cells were subjected to various treatment regimens as indicated for 3 days before SRB assays were performed.

The test system of another assay is PET mesothelioma cells. The assay is described as follows: Cell viability, SRB assay, 72 h, PET cells. In kind it is cell-based. The conditions noted are these: Cysteamine single agent. As for the experimental part: (§1) 5000 cells of each cell line were plated in 96 well plates and grown for 48 hrs at 37° C. in humidified CO2 incubator. After this the medium was replaced with drugs, bromelain, cysteamine and cisplatin in alone or in various combinations. Control wells had medium only. Plates were further incubated for 72 hrs. At the end of incubation proliferation was determined by SRB assay. […]
(§2) 6. The plate was read in a microplate reader (PowerWaveX, BIO-TEK instruments, Inc, USA) with the working wavelength 570 nm. […]
(§3) The cytotoxic effects of cysteamine, bromelain and the chemotherapeutic agent cisplatin were assessed. […] All cells were treated for 72 hours with the reagents and the cell populations were assessed using the SRB assay. Where possible, IC50 and ICmax were calculated.
(§4) Using Chou and Tallarida Method (Tallarida R J. The interaction index: a measure of drug synergism. Pain 2002; 98: 163-168), the Interaction index (γ) was evaluated for a combination of 2 and 3 drugs (γ=1 (additive) (ADD); γ=<1 (synergistic) (SYN) and γ=>1 (sub-additive) (SUB)).
On the technique in general: Sulforhodamine B stains cellular protein and so reports cell mass.

Assay [2] relates to soft mucin from PMP patients. The assay is described as follows: Disintegration of soft PMP mucin (weight of remnant mucin after incubation with the agents). The conditions noted are these: for effect of individual agents on mucin weight over time: Bromelain 300 & 200 μg/ml, NAC 250 mM, Cysteamine 200 mM alone, 0.5-3 h 37°C; for Percentage Disintegration of Mucin Samples: 0 μg/ml BR, negative = gain in weight. In kind it is biochemical, human. As for the experimental part:
Mucin samples from PMP patients were collected and stored under sterile conditions at −80° C. For experiments, the mucin was thawed to room temperature before use. One gram of soft mucin was transferred to a 50 ml centrifuge tube containing 10 ml of either 0.1 M TRIS buffer (pH. 7.0)—controls or similar arrangement containing various concentrations of cysteamine, bromelain or a mixture of the latter two reagents. The concentrations of bromelain investigated ranged from 100-300 μg/ml whilst for cysteamine it was 12.5, 25, 50, 100 and 200 mM. Stock solutions were prepared under sterile conditions in TRIS buffer pH adjusted to 7.0 using 0.1 M Sodium Hydroxide or 0.1 M Hydrochloric acid and the required quantities were added to the respective centrifuge tubes containing the mucin. The tubes were then transferred to a shaking water bath at 37° C. for 2 hours.
At the end of incubation, the remnant mucin was retrieved and weighed. The experiment was carried out using triplicate tubes and readings averaged. All experiments were performed in triplicate.
To a 50 ml centrifuge tube containing 1 g of mucin was added 10 ml of TRIS pH. 7.0 containing 300 μg/ml bromelain+250 mM NAC. Similarly, to 1 g of mucin was added 10 ml of TRIS buffer containing 200 μg/ml bromelain+200 mM cysteamine. For each time interval (0.5, 1.0, 1.5, 2.0, 2.5 and 3.0 h), a total of 6 tubes in triplicate were prepared. The controls contained, TRIS, Bromelain (300 μg/ml & 200 μg/ml), NAC (250 mM) and Cysteamine (200 mM) with mucin (also prepared for each time interval, in triplicates).
The tubes were incubated at 37° C., in a shaker water bath, sample tubes were retrieved at time interval of 0.5 hour and remnant mucin was carefully retrieved and weighed. Percentage weight lost was calculated as follows:
Percentage weight lost (disintegration)=[mucin weight (at 0 hr)−mucin weight (2 or 3 hr)]/mucin weight (at 0 hr).
The experiment was set up as outlined above in Examples 1 and 2 above, however using 10, 20, 40, 60, 80 & 100 μg/ml bromelain with varying concentrations of cysteamine (10, 20, 30, 40 & 50 mM) and the incubation was carried out at 37° C. in a shaker for 3 hours. The controls contained TRIS buffer, 10, 20, 40, 60, 80 & 100 μg/ml bromelain and 10, 20, 30, 40 & 50 mM cysteamine. Each tube was prepared in triplicate and readings averaged.
Experiments were set up as before using 1 g of mucin in a 50 ml centrifuge tube containing either TRIS buffer (pH 7.0), 50 μg/ml bromelain, 50 mM cysteamine or a combination of the last two agents. Six samples from each grades of mucin (soft, semi-hard and hard) were chosen for the experiment and the tubes were incubated in a shaker water bath at 37° C. for duration of 3 hours. The remnant mucin were carefully retrieved and weighed.

Assay [3] relates to hard mucin from PMP patients. The assay is described as follows: Disintegration of hard PMP mucin (weight of remnant mucin). It counts as biochemical, human. The conditions noted are these: 50 mM cysteamine, alone or with 50 μg/ml bromelain; 37°C, 3 hours.
In assay [4] the test system is human gastric cancer cell line KATO-III. The assay is described as follows: Cell viability, SRB assay, 3 days, KATO-III. In kind it is cell-based. The conditions noted are these: Cysteamine only. As for the experimental part:
(§5) Mesothelioma (YOU and PET), gastric (KATO-III), Colorectal (LS174T and HT295m21), pancreatic (ASPC-1 and CFPAC) and ovarian (A2780) cell lines were grown in RPMI supplemented with 10% FBS, 100 U/ml penicillin and 100 μg/ml streptomycin. All cells were maintained at 37° C.
(§6) The cytotoxic effects of cysteamine, bromelain and the chemotherapeutic agent cisplatin were assessed. Each agent was administered to the cells either alone or in combination with either or both of the other agents. All cells were treated for 72 hours with the reagents and the cell populations were assessed using the SRB assay. Where possible, IC50 and ICmax were calculated.
Cells were subjected to various treatment regimens as indicated for 3 days before SRB assays were performed. Data are represented as mean±SD (6 replicates for each treatment group).

The subject of assay [5] is HT29 colorectal cancer cells. The assay can be described thus: Proliferation, SRB assay, 72 hour culture, HT29. It counts as cell-based. The conditions noted are these: individually or in combination. As for the experimental part:
(§7) 5000 cells of each cell line were plated in 96 well plates and grown for 48 hrs at 37° C. in humidified CO2 incubator. After this the medium was replaced with drugs, bromelain, cysteamine and cisplatin in alone or in various combinations. Control wells had medium only. Plates were further incubated for 72 hrs. At the end of incubation proliferation was determined by SRB assay.
(§8) Materials and Method: • 0.4% (w/v) SRB: 1.0 g SRB— Sulforhodamine B sodium salt—(#S1402, SIGMA) in 250 ml of 1% acetic acid (stored at room temperature) • 10% (w/v) TCA: 50 g of Trichloroacetic acid (#T9159, SIGMA) in 500 ml of Milli-Q water (stored at 4° c.) • 10 mM Tris Base: 0.6055 g Tris (Trizma® base, #T6066, SIGMA) in 500 ml of Milli-Q water (stored at 4° c.) • 1% acetic acid: 10 ml of acetic acid in 1000 ml of Milli-Q water.
(§9) 1. After an incubation period of 72 hours, the old medium was discarded and cells were fixed with 200 μl of 10% (w/v) ice-cold TCA (trichloroacetic acid) for 30 minutes at 4° C.
(§10) 2. The plate was washed in distilled water 5 times.
(§11) 3. 100 μl of 0.4% (w/v) sulphorhodamine (SRB) solution was added to each well of the dry 96-well plates and they were allowed staining at room temperature for 10 mins.
4. […]
as §2

Assay [6] deals with MKN45 gastric cancer cells. The assay is described as follows: Proliferation, SRB assay, 72 hour culture, MKN45. The conditions noted are these: combination at the highest concentrations tested. In kind it is cell-based, human. How it is done:
as §7, §8, §9, §10, §11
4. […]
as §2

The test system of assay [7] is human colorectal cancer cell line HT295M12. The assay can be described thus: Cell viability, SRB assay, 3 days, HT295M12. In kind it is cell-based. The conditions noted are these: Column B=Cysteamine 1 mg/ml (FIG. 19). How it is done:
as §5, §6
Data from two independent experiments are represented as mean±SD (6 replicates for each treatment group).

The test system of a further assay is YOU mesothelioma cells. The assay can be described thus: Cell viability, SRB assay, 72 h, YOU cells. It counts as cell-based. The conditions noted are these: Cysteamine single agent. How it is done: as §1, §2, §3, §4
The mark [8] stands for this setting: FIG. 22A, 0.25 mg/ml, lowest of 0.25-1 mg/ml.
Setting [9] is: FIG. 22A, 1 mg/ml, highest of 0.25-1 mg/ml.
The mark [10] stands for this setting: FIG. 22A, middle concentration of 0.25-1 mg/ml, value not given.
[11] abbreviates: FIG. 22B, 0.25 mg/ml, lowest of 0.25-1 mg/ml.
[12] abbreviates: FIG. 22B, 1 mg/ml, highest of 0.25-1 mg/ml.
Where [13] appears, read: FIG. 22B, middle concentration of 0.25-1 mg/ml, value not given.
Where [14] appears, read: FIG. 22C, 0.25 mg/ml, lowest of 0.25-1 mg/ml.
The mark [15] stands for this setting: FIG. 22C, 1 mg/ml, highest of 0.25-1 mg/ml.
The mark [16] stands for this setting: FIG. 22C, middle concentration of 0.25-1 mg/ml, value not given.

Counter-ions that a name gives are not always drawn.

On to `NCCS` [Cysteamine dihydrochloride], for which the “Mean Diff. (Holm-Sidak's multiple comparisons test), control vs. treatment” value in [1] (setting [8]) is listed as 55.20; in [1] (setting [9]), 94.04; in [1] (setting [10]) it was 74.31.

Regarding `NCCS` [Cysteamine, cysteamine], the “Mean Diff. (Holm-Sidak's multiple comparisons test), control vs. treatment” value in assay [1] (setting [8]) turned out to be 40.75; in assay [1] (setting [9]) it was 87.12; in assay [1] (setting [10]), 61.62; in assay [1] (setting [11]), 30.75; in assay [1] (setting [12]), 81.49; in assay [1] (setting [13]), 53.01. For the same molecule, the “Mean Diff. (Holm-Sidak's multiple comparisons test), control vs. treatment” value was found to be 55.93 in assay [1] (setting [14]), 88.77 in assay [1] (setting [15]) and 70.70 in assay [1] (setting [16]). Besides, the “IC50 (as Cysteamine)” value came to 0.781 mg/mL in the assay on PET mesothelioma cells and 0.56 mg/mL in the assay with YOU mesothelioma cells. Also, the ICmax in the assay on PET mesothelioma cells (at 11.3 mg/ml cysteamine) worked out at 85% at 11.3 mg/ml; in the assay on YOU mesothelioma cells (at 11.3 mg/ml cysteamine) it was 94% at 11.3 mg/ml. Besides, in [2] (Bromelain 100, 200, 300 μg/ml or Cysteamine 12.5-200 mM as single agents, 2 h 37°C), the “effect of single agents on mucin weight” value is “only showed the mucin gaining weight, indicating hydration”. In addition, the “effect of individual agents on mucin weight over time” value in [2] is “only showed hydration initially, with subsequent slight disintegration and hydration”. The “Percentage Disintegration of Mucin Samples” value in assay [2] (CIS 12.5 mM, 2 h 37°C) was −117%; in [2] (CIS 25 mM, 2 h 37°C) it was −115%; in assay [2] (CIS 50 mM, 2 h 37°C) it was −100%; in [2] (CIS 100 mM, 2 h 37°C), −111%; in assay [2] (CIS 200 mM, 2 h 37°C), −86%. The “hydration of hard mucin” value in [3] was “dramatic percentage of hydration”. The “Mean Diff., Column A (control) vs. Column B” value in assay [4] (0.3 mg/ml (FIG. 20B, Table 14B)) was −1.313; in assay [4] (0.5 mg/ml (FIG. 20A, Table 14A)) it was 21.10; in assay [4] (0.5 mg/ml (FIG. 20C, Table 14C)), 49.64; in assay [7] it was 9.610. In addition, the inhibition of growth result in [5] is “no or little effect”. Also, in assay [6], the “effect on in vitro growth” value is “no or little effect”.

Turning to `N[C@@H](CS)C(=O)O` [L-Cysteine], the “Mean Diff. (Holm-Sidak's multiple comparisons test), control vs. treatment” value in assay [1] (setting [11]) turned out to be 10.30; in assay [1] (setting [12]), 51.11; in [1] (setting [13]) it was 25.30.

`N[C@@H](CCC(=O)N[C@@H](CS)C(=O)NCC(=O)O)C(=O)O` [L-Glutathione reduced]: the “Mean Diff. (Holm-Sidak's multiple comparisons test), control vs. treatment” value in assay [1] (setting [14]) is recorded as 25.68; in assay [1] (setting [15]) it was 32.71; in assay [1] (setting [16]), 19.54.

Turning to `CC(=O)N[C@@H](CS)C(=O)O` [NAC, N-acetyl cysteine], the “Mean Diff. (Holm-Sidak's multiple comparisons test), control vs. treatment” value is given as 20.45 in [1] (setting [8]); 23.92 in assay [1] (setting [9]); 18.80 in assay [1] (setting [10]); 15.35 in assay [1] (setting [11]); 17.73 in assay [1] (setting [12]); 9.290 in assay [1] (setting [13]). The figures for the “Mean Diff. (Holm-Sidak's multiple comparisons test), control vs. treatment” value in assay [1] (setting [14]), in assay [1] (setting [15]) and in [1] (setting [16]) were 25.62, 30.51 and 18.03, respectively. For the same molecule, the “effect of individual agents on mucin weight over time” value in [2] was “only showed hydration initially, with subsequent slight disintegration and hydration”.

Values taken from US11364286B2, “Compositions and methods for the treatment of diseases involving mucin” (priority 2015, dated 2022).
